According to ChEMBL document CHEMBL6092150, “Exploration of isatin-based inhibitors of SARS-CoV-2 Nsp15 endoribonuclease” (Eur J Med Chem, 2024):
Calls of active or inactive are those of the source. The rule behind the calls is not given here.

Tests used:
[1] = target: Replicase polyprotein 1ab (Severe acute respiratory syndrome coronavirus 2) (UniProt P0DTD1); test: Inhibition of SARS-CoV-2 recombinant GST-tagged nsp15 endonuclease activity using 5'-6-FAM-AArUAA-lowa Black FQ-3' as substrate assessed as cleavage of substrate at 100 uM measured every 2 min for 1 hrs by FRET-based Nsp15 EndoU assay relative to control
Vero C1008 = test: Cytotoxicity against african green monkey Vero E6 cells at 100 uM incubated for 72 hrs by MTT cell viability assay; format: toxicity, cell-based; settings: chlorocebus sabaeus, vero c1008, 72 h
MRC5 = test: Cytotoxicity against human MRC5 cells at 100 uM incubated for 72 hrs by MTT cell viability assay; format: toxicity, cell-based; settings: mrc5, 72 h
[2] = target: Replicase polyprotein 1ab (Severe acute respiratory syndrome coronavirus 2, UniProt P0DTD1); test: (§1) Inhibition of SARS-CoV-2 recombinant GST-tagged nsp15 endonuclease activity using 5'-6-FAM-AArUAA-lowa Black FQ-3' as substrate assessed as cleavage of substrate measured every 2 min for 1 hrs by FRET-based Nsp15 EndoU assay
[3] = target: Replicase polyprotein 1ab (Severe acute respiratory syndrome coronavirus 2) (UniProt P0DTD1); test: as §1
[4] = Cytotoxicity against human A549 cells by MTS cell viability analysis; format: toxicity, cell-based
[5] = target: Replicase polyprotein 1ab (Severe acute respiratory syndrome coronavirus 2) (UniProt P0DTD1); test: Effect on SARS-CoV-2 recombinant Nsp15 oligomerization state at 0.1 to 1 mM by Commassie-Native gel electrophoresis; settings: dose 0.1-1 mM

Compound | inhibition [1] | Activity (Vero C1008) | Activity (MRC5) | IC50 [2] | inhibition [3] | CC50 [4] | Activity [5]
O=C1Nc2ccc([N+](=O)[O-])cc2C1=O [5-NITROISATIN] | 40.7% | Non-toxic | Non-toxic | – | – | – | –
O=C1Nc2ccc(I)cc2C1=O | 26.2% | – | – | – | – | – | –
O=C1Nc2ccc(Br)cc2C1=O | 32.7% | – | – | – | – | – | –
O=C1Nc2c(Br)cc(Br)cc2C1=O | 58.4% | – | – | – | – | – | –
N#CC(C#N)=C1C(=O)Nc2ccc(I)cc21 | 32.6% | – | – | 151 µM | Dose-dependent-effect | – | –
O=C1Nc2ccc(F)cc2C1=O | 13.6% | – | – | – | – | – | –
N#CC(C#N)=C1C(=O)Nc2ccc(F)cc21 | 30.2% | – | – | 236 µM | Dose-dependent-effect | – | –
N#C[C@@]1(c2ccc3c(N)ncnn23)O[C@H](CO)[C@@H](O)[C@H]1O [GS-441524] | – | – | – | – | – | > 40 µM | –
N#CC(C#N)=C1C(=O)Nc2ccc(Br)cc21 | 55.9% | – | – | 82.9 µM | Dose-dependent-effect | – | –
N#CC(C#N)=C1C(=O)Nc2ccc([N+](=O)[O-])cc21 | 61.5% | Non-toxic | Non-toxic | 43.5 µM | Dose-dependent-effect | 189 µM | inactive
N#CC(C#N)=C1C(=O)Nc2c(Br)cc(Br)cc21 | 68.1% | Non-toxic | Non-toxic | 53.5 µM | Dose-dependent-effect | 134 µM | inactive
